Patent publication US10336788B2, “Inhibition of cardiac fibrosis in myocardial infarction” (Moerae Matrix, Inc., priority 2014, dated 2019)
No end group written: not given here.

What was measured:
HL1 cells = experiment: LDH release assay in HL1 cells (1% hypoxia or normoxia); type: cell-based, mouse; conditions: for LDH release: 1% hypoxia
Description: H9C2 is a myoblast cell line derived from rat myocardium obtained from ATCC® (CRL-1446, ATCC, Manassas, Va.) and cultured according to the recommended protocols. Briefly, cells were maintained at 37° C. with 5% CO2 in DMEM supplemented with 10% fetal bovine serum and antibiotics (100 U/ml penicillin, […] streptomycin) and split at a ratio of 1:4 using 0.05% trypsin every 36 hours. HL-1 cells were obtained from Dr. William Claycomb and cultured according to the published protocols [Claycomb W C, Lanson N A, Jr., Stallworth B S, Egeland D B, Delcarpio J B, Bahinski A, et al. HL-1 cells: a cardiac muscle cell line that contracts and retains phenotypic characteristics of the adult cardiomyocyte. Proc. Natl Acad. Sci. USA. 1998; 95:2979-84; White S M, Constantin P E, Claycomb W C. Cardiac physiology at the cellular level: use of cultured HL-1 cardiomyocytes for studies of cardiac muscle cell structure and function. Am. J. Physiol. Heart Circul. Physiol. 2004; 286:H823-9]. Briefly, cells were cultured in Claycomb medium (JRH Biosciences, USA) supplemented with 10% fetal bovine serum (JRH Biosciences), 2 mM L-glutamine (Gibco, Grand Island, N.Y.), 100 μM norepinephrine (Sigma, USA), 100 U/mL penicillin, and 100 μg/mL streptomycin (Gibco) in flasks precoated with fibronectin and gelatin (Sigma), then incubated at 37° C. in 5% CO2. Cells were split at a ratio of 1:4 using 0.05% trypsin every 48 hours. Primary cardiac fibroblasts were obtained from 2-4-day-old Sprague Dawley rats, according to previously described protocols (cat. #L K003300, Worthington Biochemical Corp., Lakewood, N.J.) [Toraason M, Luken M E, Breitenstein M, Krueger J A, Biagini R E. Comparative toxicity of allylamine and acrolein in cultured myocytes and fibroblasts from neonatal rat heart. Toxicology. […]
Cells were rinsed in PMS and grown in DMEM (cat. #11966-025, Gibco) for 2 hours prior to initiating hypoxia (simulated ischemia). […] Three different time points were adopted for each of the three cell lines according to the severity of cell death under hypoxia determined by LDH release: for H9C2 cell line: 8 hr; 16 hr; 24 hr; for HL-1 cell line: 4 hr; 8 hr; 12 hr; for cardiac fibroblast cell line: 16 hr; 32 hr; 48 hr.
Cell death was first determined using an LDH release assay (cat. #630117, Clontech), according to the manufacturer's instructions. […] Caspase 3/7 activity was next determined using a commercial Caspase 3/7 activity kit (Cat. #G8091, Promega, Madison, Wis. 53711) in a 384 well plate (Cat. #781903, Greiner bio-one) according to the manufacturer's instructions. […] The resulting cell lysates (25 μl, with 0.6 ug total protein) and Caspase-Glo 3/7 Reagent were added to each well in a 1:1 ratio and the luminescence was read (CLARIOstar, BMG LABTECH GmbH). […]

[1] = system: pharmacologically relevant receptors; experiment: Cellular functional assays on pharmacologically relevant receptors; type: cell-based; conditions: data not shown
MK2 = experiment: Immunoblot analysis of MK2 activity (HNRNPA0, total MK2, p-MK2) in H9C2 cells; type: cell-based, rat
Description: Cells were rinsed in PMS and grown in DMEM (cat. #11966-025, Gibco) for 2 hours prior to initiating hypoxia (simulated ischemia). Hypoxia was induced by placing cells in a hypoxia chamber ([…] 150i, Thermo Scientific) in a mixture of 5% CO2/95% N2 to attain a 1% oxygen concentration, according to the manufacturer's instruction. […] The MMI-0100 peptide was added to the cells at the start of the ischemia time. Cells were cultured in 12 well plates. At the time of performing the experiments, all cultures were approximately 70-90% confluent. Three different time points were adopted for each of the three cell lines according to the severity of cell death under hypoxia determined by LDH release: for H9C2 cell line: 8 hr; 16 hr; 24 hr; for HL-1 cell line: 4 hr; 8 hr; 12 hr; for cardiac fibroblast cell line: 16 hr; 32 hr; 48 hr.
The left over cell lysates from the Caspase activity assay were used for the Western blots. […] After blocking with recommended blocking reagents for 1 h at the room temperature, the membranes were incubated overnight at 4° C. with primary antibodies in TBS-T, and then incubated with secondary antibodies conjugated with HRP in TBS-T. HNRNPA0, MAPK2, and phospho-MAPK2 proteins were detected using anti-HNRNPA0 (cat. #HPA036569, 1:1000, Sigma-Aldrich), anti-MAPKAPK2 (cat. #SAB4300553, Sigma-Aldrich), and anti-phospho-MAPKAPK2 (cat. #SAB4300241, 1:1000, Sigma-Aldrich). […]

## YARAAARQARAKALARQLGVAA [MMI-0100]
HL1 cells; 100 μM only, 8 hours
  LDH release: enhanced
HL1 cells; 100 μM, normoxia (FIG. 11B)
  LDH release in normoxic conditions: unexpectedly inhibited
HL1 cells; 20 and 100 μM, 4 hours
  LDH release: significantly enhanced
HL1 cells; absence of hypoxia, 4 hours
  LDH release in normoxic conditions: did not enhance LDH release
[1]
  effect on pharmacologically relevant receptors in cellular functional assays: no substantial effect
MK2; 100 μM, after induction by hypoxia
  HNRNPA0 expression: significantly inhibited
MK2; 20 or 100 μM, 1% hypoxia
  total MK2 and p-MK2 protein levels: not changed
